ChEMBL document CHEMBL3639063, “Heterocyclic compounds containing a pyrrolopyridine or benzimidazole core” (2015)

Target: Ribosomal protein S6 kinase alpha-3 (Homo sapiens, UniProt P51812)
Assay: Kinase Glo Assay: Human RSK2 protein, purchased from Invitrogen, is used to measure kinase activity utilizing Kinase Glo Plus (Promega) a homogeneous assay technology, which uses a luciferin-luciferase based ATP detection reagent to quantify residual ATP. The assay is performed using 0.75 nM His-RSK2, 0.75 uM ATP and 1.0 uM S6 Kinase/RSK Substrate Peptide 1 (Upstate, catalog #12-124), in assay buffer consisting of 25 mM HEPES, pH 7.5, 10 mM MgCl2, 5 mM MnCl2, 50 mM KCl, 0.2% BSA, 0.01% CHAPS, 100 uM Na3VO4, 0.5 mM DTT, and 1% DMSO. Solutions of test compounds at various concentrations are prepared by 1:3 fold serial dilution of a 1 mM solution of compound in DMSO. The DMSO solutions are further diluted with assay buffer to a final concentration of DMSO of 5%.The assay is performed in a 384 well, white, non-binding plate (Corning, catalogue #3574). Solutions of test compounds (10 uL) are transferred to a dry assay plate, followed by addition of 20 uL kinase.

Ribosomal protein S6 kinase alpha-3, sequence (P51812 whole entry): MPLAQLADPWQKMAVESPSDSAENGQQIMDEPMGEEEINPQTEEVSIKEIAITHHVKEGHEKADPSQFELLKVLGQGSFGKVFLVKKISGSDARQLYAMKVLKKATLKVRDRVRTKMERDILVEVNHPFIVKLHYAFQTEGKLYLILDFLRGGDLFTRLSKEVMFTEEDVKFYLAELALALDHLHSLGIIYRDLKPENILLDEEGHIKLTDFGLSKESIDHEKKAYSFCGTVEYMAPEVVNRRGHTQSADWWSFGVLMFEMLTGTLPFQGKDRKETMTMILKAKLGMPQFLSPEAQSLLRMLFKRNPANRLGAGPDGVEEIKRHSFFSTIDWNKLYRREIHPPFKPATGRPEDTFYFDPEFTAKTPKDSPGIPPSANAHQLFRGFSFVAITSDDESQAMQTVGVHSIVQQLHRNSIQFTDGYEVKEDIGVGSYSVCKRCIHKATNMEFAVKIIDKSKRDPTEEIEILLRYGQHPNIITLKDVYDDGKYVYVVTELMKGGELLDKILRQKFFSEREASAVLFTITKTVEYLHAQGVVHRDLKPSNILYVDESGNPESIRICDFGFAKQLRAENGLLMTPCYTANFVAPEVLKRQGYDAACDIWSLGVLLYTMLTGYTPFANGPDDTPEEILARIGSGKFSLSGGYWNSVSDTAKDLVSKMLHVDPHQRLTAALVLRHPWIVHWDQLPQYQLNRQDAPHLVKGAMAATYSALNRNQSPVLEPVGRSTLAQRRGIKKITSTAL

IC50 | Structure (SMILES)
175 nM | CC1(C)CNC(=O)c2cc3ccc(C(=O)Nc4cc(C(C)(C)C)on4)nc3n2C1
17 nM | O=C(Nc1cccc(-c2c[nH]cn2)c1)c1ccc2cc3n(c2n1)CCCNC3=O
